EC50 data for 10 compounds are collected here from patent US12344610B2, “APOL1 inhibitors and methods of use” (Maze Therapeutics, Inc., priority 2022, dated 2025).

The structures appear in SMILES notation. pEC50: −log10 of the molar value.

The term pEC50 denotes the EC50 on a negative log10 scale, so that one unit is a factor of ten.

What all share (format): cell-based
Assay [1] concerns Trypanosoma brucei Lister 427 VSG221 with APOL1 G1 recombinant protein. The assay is described as follows: APOL1 G1 trypanosome cell rescue assay (Example B5). The conditions noted are these: Trypanosoma brucei, 20 h, read-out: APOL1 G1 Trypanosome Rescue EC50, Trypanosoma brucei Lister 427 VSG221 with APOL1 G1 recombinant protein, 20 hours, CellTiter-Glo; geometric mean of at least 2 assay runs; † = single assay run. On the procedure:
(§1) APOL1 G0/G1/G2 viability assay for measurement of cytotoxicity reversal by compound in trypanosomes (APOL1 G0/G1/G2 trypanosome cell rescue assay).
(§2) APOL1 protein expression and purification. The mature from of APOL1 proteins, residues 28-398, were expressed from a pET28a vector with an N-terminal His-tag and TEV cleavage site. Proteins were expressed in Escherichia coli BL21-CodonPlus (DE3)-RIPL cells. Liter cultures of terrific broth were grown at 37° C. until an OD600 of ˜0.8 was reached and then induced with isopropyl β-D-1-thiogalactopyranoside (IPTG; final concentration of 500 μM). Afterwards, cultures were grown for 3 hours at 37° C. For protein purification, cell pellets were resuspended in lysis buffer (50 mM Tris, pH 8.5, 5 mM EDTA, 0.5 mM DTT, 0.5 mM PMSF) supplemented with a cocktail of protease inhibitors. Cells were lysed by sonication, centrifuged, and the resulting pellet was collected. The homogenized pellet was resuspended in wash buffer (50 mM Tris, pH 8.5, 0.5 M NaCl, 5 mM EDTA, 0.5 mM DTT, 0.5 mM PMSF, protease inhibitor cocktail) and collected by centrifugation. Inclusion body dissolution was then conducted as previously reported (PNAS 112(9) (2015) 2894-2899; www.pnas.org/cgi/doi/10.1073/pnas.1421953112; herein incorporated by reference in its entirety). The solubilized APOL1 protein was applied to a nickel column (HisTrap, GE Life Sciences) preequilibrated in buffer A (50 mM Tris, pH 8.5, 0.15 M NaCl, 1% zwittergent 3-14, protease inhibitor cocktail). The resin was washed with buffer B (50 mM Tris, pH 8.5, 0.15 M NaCl, 0.1% DDM) and TEV cleavage was conducted on column overnight. Afterwards, the column was washed with buffer B, followed by His-washing buffer (50 mM Tris, pH 8.5, 0.15 M NaCl, 0.1% DDM, 10 mM imidazole). The protein was then removed from the resin using His-elution buffer (50 mM Tris, pH 8.5, 0.15 M NaCl, 0.1% DDM, 250 mM imidazole). The sample was further purified by size exclusion chromatography using a Superdex 200 Increase column (GE Life Sciences) in 50 mM Tris, pH 8.5, 0.15 M NaCl, and 0.1% DDM buffer. All APOL1 proteins (G0, G1, and G2) were generated at Viva Biotech (Shanghai) Ltd.
(§3) Modified HMI-9 media preparation (https://tryps.rockefeller.edu/trypsru2_culture_media_preparation.html; herein incorporated by reference in its entirety). Trypanosomes were cultured in modified HMI-9 media consisting of IMDM (ThermoFisher, 12440053), 10% heat-inactivated FBS (Gibco, 10082-147), 10% Serum Plus (Sigma-Aldrich, 14008C), 1×HMI-9 supplement stock, and 1% hypoxanthine stock. The 10×HMI-9 supplement stock was made by dissolving 280 mg bathocuproine disulfonic acid (Sigma-Aldrich, 146625), 1820 mg cysteine (add after bathocuproine) (Sigma-Aldrich, 30089), 1100 mg pyruvic acid (Sigma-Aldrich, 107360), 100 mg uracil (Sigma-Aldrich, U0750), 100 mg cytosine (Sigma-Aldrich, C3506) and 140 μL 2-mercaptoethanol (Sigma-Aldrich, M3148) in 1000 mL of water. The resulting solution was aliquoted and stored at −20° C. The hypoxanthine stock was made by dissolving 4 g of NaOH into 1000 mL of water. Afterwards, 13.6 g hypoxanthine (Sigma-Aldrich, H9377) was added to this mixture. The resulting solution was aliquoted and stored at −20° C.
(§4) Assay Setup. Trypanosoma brucei Lister 427 VSG221 (ATCC, PRA-382) cells were cultured in modified HMI-9 media. All experiments were performed in 384-well, white, solid bottom, tissue culture treated plates (Greiner, 781080). Assay ready plates were generated with duplicate 11-point compound dilution series that consisted of 2-fold stepwise dilutions (0.4% DMSO final). To each well, was added 20 μL of 2 μg/mL of APOL1 G0, G1, or G2 recombinant protein in modified HMI-9 media using a MultiDrop Combi (final APOL1 protein concentration=[…]). Trypanosomes were counted using a hemacytometer and diluted in modified HMI-9 media to a concentration of 1.25×10^4 cell/mL. […]
(In general: In ATP-based viability assays light output follows the ATP content of the culture.)

Assay [2] relates to HEK293 clonal cell line overexpressing APOL1 G1. In words: APOL1 G1 HEK293 cell rescue assay (Example B3). The conditions noted are these: Homo sapiens, HEK293, HEK293 clonal line overexpressing APOL1 G1; geometric mean of at least 2 runs; † = single run; ¥ = concentration at 50% rescue estimated (no sigmoidal curve). In outline:
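HEK293 clonal line overexpressing APOL1 G1; EC50 is half-maximal reversal of APOL1-induced cell death. Values are the geometric mean of ≥2 runs on separate days, each run the average of duplicate wells. Where no sigmoidal curve could be fitted, the concentration giving 50% rescue was estimated.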

Assay [3] concerns Trypanosoma brucei Lister 427 VSG221 with APOL1 G0 recombinant protein. The assay is described as follows: APOL1 G0 trypanosome cell rescue assay (Example B5). Conditions: Trypanosoma brucei, 20 h, read-out: APOL1 G0 Trypanosome Rescue EC50, Trypanosoma brucei Lister 427 VSG221 with APOL1 G0 recombinant protein, 20 hours, CellTiter-Glo; geometric mean of at least 2 assay runs; † = single assay run. The procedure: as §1, §2, §3, §4

The test system of assay [4] is Trypanosoma brucei Lister 427 VSG221 with APOL1 G2 recombinant protein. In words: APOL1 G2 trypanosome cell rescue assay (Example B5). The conditions noted are these: Trypanosoma brucei, 20 h, read-out: APOL1 G2 Trypanosome Rescue EC50, Trypanosoma brucei Lister 427 VSG221 with APOL1 G2 recombinant protein, 20 hours, CellTiter-Glo; geometric mean of at least 2 assay runs; † = single assay run. The procedure:
as §1, §2, §3, §4

In assay [5] the test system is HEK293 cells overexpressing APOL1 G2. In words: APOL1 G2 HEK293 cell rescue assay (reversal of cell death caused by overexpression of APOL1). Conditions: Homo sapiens, HEK293, HEK293 overexpressing APOL1 G2; geometric mean of at least 2 assay runs; † = single assay run. In outline: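 EC50 is the half-maximal effective concentration for reversing cell death driven by APOL1 G2 overexpression in HEK293 cells. Reported as geometric mean of at least 2 runs on separate days, each run averaging duplicate wells per plate; some values from a single run.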

For `CC1(O)CN(c2ncnc3cc(OCCN4CCC5(CC4)C(=O)Nc4ccc(Cl)cc45)cnc23)C1` [Compound 364, 5-chloro-1′-(2-{[4-(3-hydroxy-3-methylazetidin-1-yl)pyrido[3,2-d]pyrimidin-7-yl]oxy}ethyl)-1,2-dihydrospiro[indole-3,4′-piperidin]-2-one], the pEC50 in assay [1] was 6.69; in assay [2] it was 6.62; in assay [3] it was 6.81; in assay [4] it was 7.03; in assay [5], 6.95.

With `O=C1Nc2ccc(Cl)cc2C12CCN(CCOc1cnc3c(N4CC(O)C4)ncnc3c1)CC2` [Compound 366, 5-chloro-1′-(2-{[4-(3-hydroxyazetidin-1-yl)pyrido[3,2-d]pyrimidin-7-yl]oxy}ethyl)-1,2-dihydrospiro[indole-3,4′-piperidin]-2-one], the negative logarithm of the EC50 (pEC50) is 7.06 in assay [1]; 6.87 in assay [2]; 7.18 in assay [3]; 7.49 in assay [4]; 7.10 in assay [5].

In the case of `C[C@]1(O)C[C@@H](n2cnc3cc(OCCN4CCC5(CC4)C(=O)Nc4ccc(Cl)cc45)cnc32)C1` [Compound 367, 5-chloro-1′-[2-({3-[(cis)-3-hydroxy-3-methylcyclobutyl]-3H-imidazo[4,5-b]pyridin-6-yl}oxy)ethyl]-1,2-dihydrospiro[indole-3,4′-piperidin]-2-one], the negative-log EC50 (pEC50) was 6.49 in assay [1]; 6.84 in assay [2]; 6.64 in assay [3]; 6.97 in assay [4]; 7.06 in assay [5].

Regarding `C[C@]1(O)C[C@@H](N2C(=O)CCc3cc(OCCN4CCC5(CC4)C(=O)Nc4ccc(C#N)cc45)cnc32)C1` [Compound 404, 2-oxo-1′-[2-({7-oxo-8-[(cis)-3-hydroxy-3-methylcyclobutyl]-5,6,7,8-tetrahydro-1,8-naphthyridin-3-yl}oxy)ethyl]-1,2-dihydrospiro[indole-3,4′-piperidine]-5-carbonitrile], the pEC50 in assay [1] was 6.26; in assay [2], 6.61; in assay [3] it was 6.37; in assay [4] it was 6.68; in assay [5], 6.89.

For `CC1(O)CN(c2ncc(OCCN3CCC4(CC3)C(=O)Nc3ccc(Cl)cc34)cc2C(F)(F)F)C1` [Compound 405, 5-chloro-1′-(2-{[6-(3-hydroxy-3-methylazetidin-1-yl)-5-(trifluoromethyl)pyridin-3-yl]oxy}ethyl)-1,2-dihydrospiro[indole-3,4′-piperidin]-2-one], the negative logarithm of the EC50 (pEC50) is 7.67 in assay [1]; 7.72 in assay [2]; 7.70 in assay [3]; 8.09 in assay [4]; 8.02 in assay [5].

Consider `C[C@]1(O)C[C@@H](n2c(=O)ccc3cc(OCCN4CCC5(CC4)C(=O)Nc4ccc(C#N)cc45)cnc32)C1` [Compound 406, 2-oxo-1′-[2-({7-oxo-8-[(cis)-3-hydroxy-3-methylcyclobutyl]-7,8-dihydro-1,8-naphthyridin-3-yl}oxy)ethyl]-1,2-dihydrospiro[indole-3,4′-piperidine]-5-carbonitrile], for which the pEC50 was 6.89 in assay [1]; 6.96 in assay [2]; 6.97 in assay [3]; 7.29 in assay [4]; 7.23 in assay [5].

`CC1(O)CC(n2ncc3cc(OCCN4CCC5(CC4)C(=O)Nc4ccc(Cl)cc45)cnc32)C1` (centres unmarked) [Compound 407, 5-chloro-1′-(2-{[1-(3-hydroxy-3-methylcyclobutyl)-1H-pyrazolo[3,4-b]pyridin-5-yl]oxy}ethyl)-1,2-dihydrospiro[indole-3,4′-piperidin]-2-one]: the pEC50 in assay [1] is 7.00; in assay [2], 7.33; in assay [3] it was 7.14; in assay [4], 7.48; in assay [5] it was 7.62.

`CC1(C)OCC(c2ncc(OCCN3CCC4(CC3)C(=O)Nc3ccc(Cl)cc34)cn2)O1` (centres unmarked) [Compound 441, 5-chloro-1′-(2-{[2-(2,2-dimethyl-1,3-dioxolan-4-yl)pyrimidin-5-yl]oxy}ethyl)-1,2-dihydrospiro[indole-3,4′-piperidin]-2-one]: the negative logarithm of the EC50 (pEC50) in assay [1] is 6.67; in assay [2], 7.02; in assay [3] it was 6.84; in assay [4], 7.11; in assay [5], 7.24.

Regarding `C[C@]1(O)C[C@@H](c2nc3cc(OCCN4CCC5(CC4)C(=O)Nc4ccc(Cl)cc45)cc(C(F)(F)F)c3[nH]2)C1` [Compound 466, 5-chloro-1′-[2-({2-[(cis)-3-hydroxy-3-methylcyclobutyl]-7-(trifluoromethyl)-1H-1,3-benzodiazol-5-yl}oxy)ethyl]-1,2-dihydrospiro[indole-3,4′-piperidin]-2-one], the negative logarithm of the EC50 (pEC50) was 7.51 in assay [1]; 8.06 in assay [2]; 7.71 in assay [3]; 7.92 in assay [4]; 8.37 in assay [5].

On to `C[C@]1(O)C[C@@H](n2c(=O)n(CO)c3cc(OCCN4CCC5(CC4)C(=O)Nc4ccc(Cl)cc45)cc(C(F)(F)F)c32)C1` [Compound 467, 5-chloro-1′-(2-{[3-(hydroxymethyl)-2-oxo-1-[(cis)-3-hydroxy-3-methylcyclobutyl]-7-(trifluoromethyl)-2,3-dihydro-1H-1,3-benzodiazol-5-yl]oxy}ethyl)-1,2-dihydrospiro[indole-3,4′-piperidin]-2-one], for which the negative logarithm of the EC50 (pEC50) is 8.22 in assay [1]; 7.84 in assay [2]; 8.43 in assay [3]; 8.65 in assay [4]; 8.32 in assay [5].
